Measurements taken from US20020137929A1, “1 - (3-heterocyclylphenyl) isothiourea, -isourea, -guanidine and -amidine herbicidal agents” (Intellectual Property Department, BASF Aktiengesellschaft, priority 1998, published 2002).

Assays:
AMBEL (Ragweed, Common) [1] = test: Postemergence herbicidal evaluation; type: in vivo, Ambrosia artemisifolia; conditions: postemergence
In short: (§1)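 Herbicidal effect was judged by eye on a 0–9 scale covering stand, vigor, deformity, size and chlorosis, compared with controls, four to five weeks after seedlings about two weeks old were sprayed (40 psi, ~0.0156–0.500 kg/ha).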

[2] = test system: GLXMAW (Soybean, Williams); test: Postemergence herbicidal evaluation; type: in vivo, Glycine max, (L.) Merr. cv Williams; conditions: postemergence
In short: as §1

ZEAMX (Corn, Field) = test: Postemergence herbicidal evaluation; type: in vivo, Zea mays; conditions: postemergence
In short: as §1

ABUTH (Velvetleaf) = test: Preemergence herbicidal evaluation; type: in vivo, Abutilon theophrasti; conditions: rated 4-5 weeks after treatment
In short: (§2)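 Scores use a 0–9 visual scale covering stand, vigor, malformation, size and chlorosis relative to controls, rated four to five weeks after treatment. Before emergence, soil-planted seeds were sprayed with compound in aqueous acetone at roughly 0.0156–0.500 kg/ha and held in the greenhouse.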

AMBEL (Ragweed, Common) [3] = test: Preemergence herbicidal evaluation; type: in vivo, Ambrosia artemisifolia; conditions: rated 4-5 weeks after treatment
In short: as §2

CASOB (Sicklepod) = test: Preemergence herbicidal evaluation; type: in vivo, Cassia obtusifolia; conditions: rated 4-5 weeks after treatment
In short: as §2

ECHCG (Barnyardgrass) = test: Preemergence herbicidal evaluation; type: in vivo, Echinochloa crus-galli; conditions: rated 4-5 weeks after treatment
In short: as §2

SETVI (Foxtail, Green) = test: Preemergence herbicidal evaluation; type: in vivo, Setaria viridis; conditions: rated 4-5 weeks after treatment
In short: as §2

[4] = test system: GLXMAW (Soybean, Williams); test: Preemergence herbicidal evaluation; type: in vivo, Glycine max, (L.) Merr. cv Williams; conditions: rated 4-5 weeks after treatment
In short: as §2

CYPSE (Flatsedge) = test: Preemergence weed control under flooded paddy conditions; type: in vivo, Cyperus serotinus; conditions: rated 3-4 weeks after treatment
In short: (§3)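 Seeds or propagules sown in silt loam kept flooded 1.5-3 cm; compounds in 50/50 acetone/water pipetted into flood water at about 0.0313 to 0.500 kg/ha. Greenhouse; visual 0-9 rating versus untreated control 3-4 weeks after treatment.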

[5] = test system: SAGPY (Arrowhead (Pygmaea)); test: as above; type: in vivo, Sagittaria pygmaea; conditions: rated 3-4 weeks after treatment
In short: as §3

[6] = test system: ECHORC (Watergrass (Calif.)); test: Postemergence weed control under flooded paddy conditions; type: in vivo, Echinochloa oryzoides; conditions: postemergence weeds, 3-4 weeks after treatment
In short: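 Injury ratings (0–9 scale covering stand, vigor, malformation, size, chlorosis and overall appearance versus control) were made three to four weeks after treatment. Test material, about 0.0313 to 0.500 kg/ha a.i. in 50/50 v/v aqueous/acetone, was added to flood water 1.5 to 3 cm deep over 3 to 5 cm weeds and 1.5 to 2.5 leaf rice.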

## C=CCN1C(=O)CSC1=Nc1cc(N2C(=O)C3=C(CCCC3)C2=O)c(F)cc1Cl [Compound 2, N-{5-[(3-allyl-4-oxo-2-thiazolidinylidene)amino]-4-chloro-2-fluorophenyl}-1-cyclohexene-1,2-dicarboximide]
AMBEL (Ragweed, Common) [1]; rate 0.0157 kg/ha
  AMBEL herbicidal rating: 4.0
AMBEL (Ragweed, Common) [1]; rate 0.0313 kg/ha
  AMBEL herbicidal rating: 2.0
AMBEL (Ragweed, Common) [1]; rate 0.0625 kg/ha
  AMBEL herbicidal rating: 6.0
AMBEL (Ragweed, Common) [1]; rate 0.1250 kg/ha
  AMBEL herbicidal rating: 2.0
AMBEL (Ragweed, Common) [1]; rate 0.2500 kg/ha
  AMBEL herbicidal rating: 6.0
AMBEL (Ragweed, Common) [1]; rate 0.5000 kg/ha
  AMBEL herbicidal rating: 9.0
[2]; rate 0.0157 kg/ha
  GLXMAW herbicidal rating: 3.5
[2]; rate 0.0313 kg/ha
  GLXMAW herbicidal rating: 3.5
[2]; rate 0.0625 kg/ha
  GLXMAW herbicidal rating: 3.5
[2]; rate 0.1250 kg/ha
  GLXMAW herbicidal rating: 3.0
[2]; rate 0.2500 kg/ha
  GLXMAW herbicidal rating: 3.0
[2]; rate 0.5000 kg/ha
  GLXMAW herbicidal rating: 3.0
ZEAMX (Corn, Field); rate 0.0157 kg/ha
  ZEAMX herbicidal rating: 3.0
ZEAMX (Corn, Field); rate 0.0313 kg/ha
  ZEAMX herbicidal rating: 3.0
ZEAMX (Corn, Field); rate 0.0625 kg/ha
  ZEAMX herbicidal rating: 3.0
ZEAMX (Corn, Field); rate 0.1250 kg/ha
  ZEAMX herbicidal rating: 3.5
ZEAMX (Corn, Field); rate 0.2500 kg/ha
  ZEAMX herbicidal rating: 3.5
ZEAMX (Corn, Field); rate 0.5000 kg/ha
  ZEAMX herbicidal rating: 4.0
ABUTH (Velvetleaf); rate 0.0313 kg/ha
  ABUTH preemergence herbicidal rating: 0.0
ABUTH (Velvetleaf); rate 0.0625 kg/ha
  ABUTH preemergence herbicidal rating: 0.0
ABUTH (Velvetleaf); rate 0.5000 kg/ha
  ABUTH preemergence herbicidal rating: 4.0
AMBEL (Ragweed, Common) [3]; rate 0.0313 kg/ha
  AMBEL preemergence herbicidal rating: 0.0
AMBEL (Ragweed, Common) [3]; rate 0.0625 kg/ha
  AMBEL preemergence herbicidal rating: 0.0
AMBEL (Ragweed, Common) [3]; rate 0.1250 kg/ha
  AMBEL preemergence herbicidal rating: 0.0
AMBEL (Ragweed, Common) [3]; rate 0.2500 kg/ha
  AMBEL preemergence herbicidal rating: 0.0
AMBEL (Ragweed, Common) [3]; rate 0.5000 kg/ha
  AMBEL preemergence herbicidal rating: 0.0
CASOB (Sicklepod); rate 0.0313 kg/ha
  CASOB preemergence herbicidal rating: 2.0
CASOB (Sicklepod); rate 0.0625 kg/ha
  CASOB preemergence herbicidal rating: 2.0
CASOB (Sicklepod); rate 0.5000 kg/ha
  CASOB preemergence herbicidal rating: 2.0
ECHCG (Barnyardgrass); rate 0.0313 kg/ha
  ECHCG preemergence herbicidal rating: 0.0
ECHCG (Barnyardgrass); rate 0.0625 kg/ha
  ECHCG preemergence herbicidal rating: 0.0
ECHCG (Barnyardgrass); rate 0.1250 kg/ha
  ECHCG preemergence herbicidal rating: 4.0
ECHCG (Barnyardgrass); rate 0.2500 kg/ha
  ECHCG preemergence herbicidal rating: 0.0
ECHCG (Barnyardgrass); rate 0.5000 kg/ha
  ECHCG preemergence herbicidal rating: 8.0
SETVI (Foxtail, Green); rate 0.0313 kg/ha
  SETVI preemergence herbicidal rating: 0.0
SETVI (Foxtail, Green); rate 0.0625 kg/ha
  SETVI preemergence herbicidal rating: 0.0
SETVI (Foxtail, Green); rate 0.1250 kg/ha
  SETVI preemergence herbicidal rating: 6.0
SETVI (Foxtail, Green); rate 0.2500 kg/ha
  SETVI preemergence herbicidal rating: 6.0
SETVI (Foxtail, Green); rate 0.5000 kg/ha
  SETVI preemergence herbicidal rating: 9.0
[4]; rate 0.0313 kg/ha
  GLXMAW preemergence herbicidal rating: 0.0
[4]; rate 0.0625 kg/ha
  GLXMAW preemergence herbicidal rating: 0.0
[4]; rate 0.1250 kg/ha
  GLXMAW preemergence herbicidal rating: 0.0
[4]; rate 0.2500 kg/ha
  GLXMAW preemergence herbicidal rating: 0.0
[4]; rate 0.5000 kg/ha
  GLXMAW preemergence herbicidal rating: 1.0
CYPSE (Flatsedge); 0.0313 kg/ha
  Herbicidal rating CYPSE: 0.0
CYPSE (Flatsedge); 0.0625 kg/ha
  Herbicidal rating CYPSE: 0.0
CYPSE (Flatsedge); 0.1250 kg/ha
  Herbicidal rating CYPSE: 0.0
CYPSE (Flatsedge); 0.2500 kg/ha
  Herbicidal rating CYPSE: 0.0
CYPSE (Flatsedge); 0.5000 kg/ha
  Herbicidal rating CYPSE: 0.0
[5]; 0.0313 kg/ha
  Herbicidal rating SAGPY: 0.0
[5]; 0.0625 kg/ha
  Herbicidal rating SAGPY: 0.0
[5]; 0.1250 kg/ha
  Herbicidal rating SAGPY: 0.0
[5]; 0.2500 kg/ha
  Herbicidal rating SAGPY: 0.0
[5]; 0.5000 kg/ha
  Herbicidal rating SAGPY: 0.0
[6]; rate 0.0313 kg/ha
  Herbicidal rating ECHORC: 1.0
[6]; rate 0.0625 kg/ha
  Herbicidal rating ECHORC: 1.0
[6]; rate 0.1250 kg/ha
  Herbicidal rating ECHORC: 3.5
[6]; rate 0.2500 kg/ha
  Herbicidal rating ECHORC: 4.0
[6]; rate 0.5000 kg/ha
  Herbicidal rating ECHORC: 4.5

## CCC1SC(=Nc2cc(N3C(=O)C4=C(CCCC4)C3=O)c(F)cc2Cl)N(C)C1=O (stereo not shown) [Compound 6, N-{4-chloro-5-[(5-ethyl-3-methyl-4-oxo-2-thiazolidinylidene)amino]-2-fluorophenyl}-1-cyclohexene-1,2-dicarboximide]
AMBEL (Ragweed, Common) [1]; rate 0.0157 kg/ha
  AMBEL herbicidal rating: 2.0
AMBEL (Ragweed, Common) [1]; rate 0.0313 kg/ha
  AMBEL herbicidal rating: 2.0
AMBEL (Ragweed, Common) [1]; rate 0.0625 kg/ha
  AMBEL herbicidal rating: 2.0
AMBEL (Ragweed, Common) [1]; rate 0.1250 kg/ha
  AMBEL herbicidal rating: 4.0
AMBEL (Ragweed, Common) [1]; rate 0.2500 kg/ha
  AMBEL herbicidal rating: 4.0
AMBEL (Ragweed, Common) [1]; rate 0.5000 kg/ha
  AMBEL herbicidal rating: 4.0
ZEAMX (Corn, Field); rate 0.0157 kg/ha
  ZEAMX herbicidal rating: 3.0
ZEAMX (Corn, Field); rate 0.0313 kg/ha
  ZEAMX herbicidal rating: 3.5
ZEAMX (Corn, Field); rate 0.0625 kg/ha
  ZEAMX herbicidal rating: 3.5
ZEAMX (Corn, Field); rate 0.1250 kg/ha
  ZEAMX herbicidal rating: 3.5
ZEAMX (Corn, Field); rate 0.2500 kg/ha
  ZEAMX herbicidal rating: 3.5
ZEAMX (Corn, Field); rate 0.5000 kg/ha
  ZEAMX herbicidal rating: 4.0
ABUTH (Velvetleaf); rate 0.1250 kg/ha
  ABUTH preemergence herbicidal rating: 0.0
ABUTH (Velvetleaf); rate 0.2500 kg/ha
  ABUTH preemergence herbicidal rating: 0.0
ABUTH (Velvetleaf); rate 0.5000 kg/ha
  ABUTH preemergence herbicidal rating: 0.0
AMBEL (Ragweed, Common) [3]; rate 0.1250 kg/ha
  AMBEL preemergence herbicidal rating: 0.0
AMBEL (Ragweed, Common) [3]; rate 0.2500 kg/ha
  AMBEL preemergence herbicidal rating: 0.0
AMBEL (Ragweed, Common) [3]; rate 0.5000 kg/ha
  AMBEL preemergence herbicidal rating: 0.0
CASOB (Sicklepod); rate 0.1250 kg/ha
  CASOB preemergence herbicidal rating: 0.0
CASOB (Sicklepod); rate 0.2500 kg/ha
  CASOB preemergence herbicidal rating: 0.0
CASOB (Sicklepod); rate 0.5000 kg/ha
  CASOB preemergence herbicidal rating: 0.0
ECHCG (Barnyardgrass); rate 0.1250 kg/ha
  ECHCG preemergence herbicidal rating: 0.0
ECHCG (Barnyardgrass); rate 0.2500 kg/ha
  ECHCG preemergence herbicidal rating: 0.0
ECHCG (Barnyardgrass); rate 0.5000 kg/ha
  ECHCG preemergence herbicidal rating: 2.0
SETVI (Foxtail, Green); rate 0.1250 kg/ha
  SETVI preemergence herbicidal rating: 0.0
SETVI (Foxtail, Green); rate 0.2500 kg/ha
  SETVI preemergence herbicidal rating: 2.0
CYPSE (Flatsedge); 0.0313 kg/ha
  Herbicidal rating CYPSE: 0.0
CYPSE (Flatsedge); 0.0625 kg/ha
  Herbicidal rating CYPSE: 0.0
CYPSE (Flatsedge); 0.1250 kg/ha
  Herbicidal rating CYPSE: 0.0
CYPSE (Flatsedge); 0.2500 kg/ha
  Herbicidal rating CYPSE: 0.0
CYPSE (Flatsedge); 0.5000 kg/ha
  Herbicidal rating CYPSE: 0.0
[5]; 0.0313 kg/ha
  Herbicidal rating SAGPY: 0.0
[5]; 0.0625 kg/ha
  Herbicidal rating SAGPY: 0.0
[5]; 0.1250 kg/ha
  Herbicidal rating SAGPY: 0.0
[5]; 0.2500 kg/ha
  Herbicidal rating SAGPY: 0.0
[5]; 0.5000 kg/ha
  Herbicidal rating SAGPY: 0.0
[6]; rate 0.0313 kg/ha
  Herbicidal rating ECHORC: 0.0
[6]; rate 0.0625 kg/ha
  Herbicidal rating ECHORC: 0.0
[6]; rate 0.1250 kg/ha
  Herbicidal rating ECHORC: 1.0
[6]; rate 0.2500 kg/ha
  Herbicidal rating ECHORC: 3.5
[6]; rate 0.5000 kg/ha
  Herbicidal rating ECHORC: 3.5
